The values that follow come from publication PMC11465516, “Kinetic and Structural Studies of the Plastidial Solanum tuberosum Phosphorylase” (ACS Omega, 2024).

Where two headings read alike, the source gives them in different places.

What is called Ki is a dissociation constant, usually derived from enzyme kinetics or from competition with a known ligand. In general, Km refers to the concentration of substrate that gives half-maximal velocity.

Assay [1] concerns the target rabbit muscle glycogen phosphorylase b (rmGPb). As to conditions: cited from earlier work.
Assay [2] has as its target T1, stPho1 (plastidial Solanum tuberosum phosphorylase) (Solanum tuberosum, UniProt P04045).
T1 construct: stPho1 was purified from a natural source; from tissue; host or cells: Solanum tuberosum mature tubers
T1 sequence (P04045 51-966): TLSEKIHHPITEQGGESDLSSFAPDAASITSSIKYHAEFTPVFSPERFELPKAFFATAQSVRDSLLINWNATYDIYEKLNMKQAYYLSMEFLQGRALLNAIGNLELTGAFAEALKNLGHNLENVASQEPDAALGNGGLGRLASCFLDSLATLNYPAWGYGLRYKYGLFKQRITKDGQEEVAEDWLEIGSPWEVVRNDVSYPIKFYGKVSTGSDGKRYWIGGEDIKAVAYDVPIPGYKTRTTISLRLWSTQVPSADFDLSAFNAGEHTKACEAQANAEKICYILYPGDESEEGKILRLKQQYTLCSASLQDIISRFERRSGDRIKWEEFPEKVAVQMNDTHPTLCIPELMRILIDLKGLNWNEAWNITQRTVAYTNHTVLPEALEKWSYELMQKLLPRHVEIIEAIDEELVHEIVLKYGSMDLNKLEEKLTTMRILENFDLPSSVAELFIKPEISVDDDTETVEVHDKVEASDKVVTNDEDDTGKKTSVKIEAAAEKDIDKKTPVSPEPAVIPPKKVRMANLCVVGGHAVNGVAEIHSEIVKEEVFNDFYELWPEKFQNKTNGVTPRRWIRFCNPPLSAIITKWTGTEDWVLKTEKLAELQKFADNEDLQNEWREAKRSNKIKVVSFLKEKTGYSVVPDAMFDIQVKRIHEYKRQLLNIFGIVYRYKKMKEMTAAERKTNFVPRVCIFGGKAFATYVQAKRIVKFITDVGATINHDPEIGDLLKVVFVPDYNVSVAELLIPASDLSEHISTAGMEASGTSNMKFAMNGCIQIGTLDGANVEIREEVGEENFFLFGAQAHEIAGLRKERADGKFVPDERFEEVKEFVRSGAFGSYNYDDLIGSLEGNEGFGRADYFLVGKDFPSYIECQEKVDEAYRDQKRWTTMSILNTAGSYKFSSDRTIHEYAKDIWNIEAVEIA
Description: stPho1 enzyme kinetics in the direction of glycogen synthesis. It is filed as biochemical. The source says: (§1) In vitro, stPho1 can perform the reverse reaction in the presence of higher concentrations of Glc-1-P, where the enzyme adds glucose residues on glucans with direct release of orthophosphate ions, which can then be measured spectrophotometrically using the method of Saheki et al.[47] Starch granules are composed of two distinct glucose polymers, amylose and amylopectin.[48] Amylopectin is the major polymer in starch and has α-1,4-linked glucose chains with α-1,6-linked branches every 24–30 glucose units, whereas amylose is composed of long α-1,4-linked linear chains. Kinetic studies were performed using glycogen, whose structure is very similar to that of amylopectin but with more branches (every 8–12 glucose units) due to better solubility. Enzyme assays were performed at 30 °C in the direction of glycogen synthesis using 30 μg/mL of stPho1 or ΔPho1 in a 20 mM sodium citrate buffer (pH 6.0) containing 60 mM KCl, 0.6 mM ethylenediaminetetraacetic acid (EDTA), and 0.6 mM dithiothreitol, using constant concentrations of glycogen (0.2% w/v) and various concentrations of Glc-1-P (3, 4, 6, 10, and 15 mM for stPho1 and 1, 2, 3, 4, 6 mM for stPho1ΔL78) and inhibitors. Initial velocities were calculated from the pseudo-first-order rate constants (k) using the first-order rate equation ([A] = [A]0e^–kt), where [A]0 and [A] are the initial concentration of the sample and the sample’s concentration at various times, respectively, and t is the corresponding time (min) following a previously established protocol,[54] and the nonlinear regression program GraFit[50] with an explicit value was used for calculating the standard deviation of each point.[49]
(§2) To establish the optimum pH and temperature for enzyme activity, we first measured the enzymatic activity in the 4.5–8.5 pH range. Kinetic studies were performed in the direction of glycogen synthesis using 50 μg/mL of stPho1 using six different buffers (20 mM sodium acetate buffer for pH 4.5 and 5.5, 20 mM sodium citrate buffer for pH 6.0 and 6.5, and 20 mM Tris–HCl for pH 7.5 and 8.5) containing 60 mM KCl, 0.6 mM EDTA, and 0.6 mM dithiothreitol, using constant concentrations of glycogen (0.2% w/v) and Glc-1-P (14 mM) at 30 °C. […] To determine the optimum temperature for the activity, enzymatic assays were performed at temperatures 20, 30, 37, and 45 °C. Kinetic studies were performed in the direction of glycogen synthesis using 50 μg/mL of stPho1 in a 20 mM sodium citrate buffer (pH 6.0) containing 60 mM KCl, 0.6 mM EDTA, and 0.6 mM dithiothreitol, using constant concentrations of glycogen (0.2% w/v) and Glc-1-P (4 mM). […] Since mammalian muscle phosphorylase activity is dependent on the presence of the allosteric activator AMP,[35] we investigated whether the presence of AMP affects the stPho1 enzymatic activity. The effect was tested with 1 mM AMP, using 30 μg/mL of stPho1 in 20 mM sodium citrate buffer (pH 6.0) containing 60 mM KCl, 0.6 mM EDTA, and 0.6 mM dithiothreitol, using a saturating concentration of glycogen (0.2% w/v) and various concentrations of Glc-1-P (3, 6, 10, and 15 mM).

The target of assay [3] is T2, stPho1ΔL78 (Solanum tuberosum, UniProt P04045).
T2 construct: the N-terminal (residues 23–446) and the C-terminal (residues 511–916); from tissue; host or cells: Solanum tuberosum mature tubers; purified stPho1 left about 4 weeks at room temperature to proteolyse
Description: stPho1ΔL78 enzyme kinetics in the direction of glycogen synthesis. It is filed as biochemical.
Description: as §1, §2

In assay [4] the test system is stPho1ΔL78. The assay is described as above. Conditions: direction of glycan synthesis. It is filed as biochemical, Solanum tuberosum.
Description: as §1, §2

The next assay concerns the target rmGPa. More on the design: method as in PMID 12930991, PMID 3805034, PMID 624732. As to conditions: cited from earlier work.
The target of the next assay is mammalian enzyme (GP). More on the design: method as in PMID 32771768. As to conditions: cited from earlier work.
Setting [5] is: 30 °C, pH 6.0, glycogen 0.2% w/v.
[6] abbreviates: 30 °C, pH 6.0, glycogen 0.2% w/v, read-out: Km Glc-1-P.
Where [7] appears, read: 30 °C, pH 6.0, glycogen 0.2% w/v, various Glc-1-P, read-out: Ki.

On to `OC[C@H]1O[C@@H]2O[C@H]3[C@H](O)[C@@H](O)[C@@H](O[C@H]4[C@H](O)[C@@H](O)[C@@H](O[C@H]5[C@H](O)[C@@H](O)[C@@H](O[C@H]6[C@H](O)[C@@H](O)[C@@H](O[C@H]7[C@H](O)[C@@H](O)[C@@H](O[C@H]8[C@H](O)[C@@H](O)[C@@H](O[C@H]9[C@H](O)[C@@H](O)[C@@H](O[C@H]1[C@H](O)[C@H]2O)O[C@@H]9CO)O[C@@H]8CO)O[C@@H]7CO)O[C@@H]6CO)O[C@@H]5CO)O[C@@H]4CO)O[C@@H]3CO` [γ-cyclodextrin], for which the Ki in assay [1] (glycogen storage site ligands) was 7.4 mM.

Take `Cn1c(=O)c2c(ncn2C)n(C)c1=O` [caffeine]: the Ki in assay [1] (in the presence of 1 mM AMP) is 0.13 mM.

Regarding glycogen, the “Km × 1000 glycogen” value in assay [2] (30 °C, pH 6.0) was 114.2 ± 7.6%; at stPho1ΔL78 [3] (30 °C, pH 6.0) it was 60 ± 9%; in assay [1], 12^1[63] %. Also, the “Affinity of stPho1ΔL78 relative to stPho1” value in the assay on stPho1ΔL78 [4] is 2 times.

As to `C[C@H]1O[C@H](O[C@H]2[C@H](O)[C@@H](O)[C@@H](O[C@H]3[C@H](O)[C@@H](O)C(O)O[C@@H]3CO)O[C@@H]2CO)[C@H](O)[C@@H](O)[C@@H]1N[C@H]1C=C(CO)[C@@H](O)[C@H](O)[C@H]1O` (some centres unmarked) [acarbose], the Ki at rmGPa is 26 mM.

For the molecule `O=P(O)(O)O[C@H]1O[C@H](CO)[C@@H](O)[C@H](O)[C@H]1O` [Glc-1-P, glucose-1-phosphate], the “Vmax Glc-1-P” value in assay [2] (setting [5]) was 0.37 ± 0.01 µmol/min/mg; at stPho1ΔL78 [3] (setting [5]), 0.32 ± 0.02 µmol/min/mg; in assay [1], 2.9[63] μmol/min/mg. Besides, the Michaelis constant (Km) in assay [2] (setting [6]) is 2300 ± 200 µM; in assay [2] (read-out: Km Glc-1-P + 1 mM AMP, + 1 mM AMP, pH 6.0, glycogen 0.2% w/v), 2400 ± 200 µM; on stPho1ΔL78 [3] (setting [6]), 1400 ± 200 µM; in assay [1] (read-out: Km Glc-1-P + 1 mM AMP, + 1 mM AMP), 9000 µM; in assay [1] (read-out: Km Glc-1-P), 28000 µM. In addition, the “Vmax Glc-1-P + 1 mM AMP” value in assay [2] (+ 1 mM AMP, pH 6.0, glycogen 0.2% w/v) was 0.39 ± 0.01 µmol/min/mg; in assay [1] (+ 1 mM AMP), 64[63] μmol/min/mg.

For maltoheptaose [maltoheptaose (G7)], the Ki in assay [1] (glycogen storage site ligands) is 1 mM.

With `OC[C@H]1O[C@@H]2O[C@H]3[C@H](O)[C@@H](O)[C@@H](O[C@H]4[C@H](O)[C@@H](O)[C@@H](O[C@H]5[C@H](O)[C@@H](O)[C@@H](O[C@H]6[C@H](O)[C@@H](O)[C@@H](O[C@H]7[C@H](O)[C@@H](O)[C@@H](O[C@H]1[C@H](O)[C@H]2O)O[C@@H]7CO)O[C@@H]6CO)O[C@@H]5CO)O[C@@H]4CO)O[C@@H]3CO` [α-cyclodextrin], in assay [1] (glycogen storage site ligands), the Ki is 47.1 mM.

As for `Nc1ncnc2c1ncn2[C@@H]1O[C@H](COP(=O)(O)O)[C@@H](O)[C@H]1O` [AMP], the “Effect on stPho1 enzymatic activity (Vmax, Km)” value in assay [2] (1 mM AMP, glycogen 0.2% w/v, Glc-1-P 3-15 mM) was “does not have any effect”.

Take `OC[C@H]1O[C@H](O)[C@H](O)[C@@H](O)[C@@H]1O` [α-D-glucose]: the Ki is 42.8 ± 2.6 mM in assay [2] (setting [7]), 38.4 ± 1.5 mM on stPho1ΔL78 [3] (setting [7]) and 3.2 mM in assay [1] (in the presence of 1 mM AMP).

For the molecule `O=c1c(O)c(-c2ccc(O)c(O)c2)oc2cc(O)cc(O)c12` [quercetin], the “Effect on the enzymatic activity of stPho1” value in assay [2] (up to a concentration of 1 mM) is given as “did not have any effect”. Besides, the inhibition constant Ki at mammalian enzyme (GP) is 0.032 to 0.069 mM.

As to `OC[C@H]1O[C@@H]2O[C@H]3[C@H](O)[C@@H](O)[C@@H](O[C@H]4[C@H](O)[C@@H](O)[C@@H](O[C@H]5[C@H](O)[C@@H](O)[C@@H](O[C@H]6[C@H](O)[C@@H](O)[C@@H](O[C@H]7[C@H](O)[C@@H](O)[C@@H](O[C@H]8[C@H](O)[C@@H](O)[C@@H](O[C@H]1[C@H](O)[C@H]2O)O[C@@H]8CO)O[C@@H]7CO)O[C@@H]6CO)O[C@@H]5CO)O[C@@H]4CO)O[C@@H]3CO` [β-cyclodextrin], the Ki in assay [2] is 0.0731 ± 0.0059 mM; at stPho1ΔL78 [3], 0.031 ± 0.001 mM; in assay [1] (in the presence of 1 mM AMP) it was 14.1 mM. Besides, the “Binding strength in stPho1 relative to rmGPb” value in assay [2] (stPho1 forms vs rmGPb) is 200–450 times.
